These are literature values, as cited in patent US20050272031A1, “Viral variants and uses therefor” (MELBOURNE HEALTH, priority 2000, published 2005).

The data set concerns HBV.

Turning to `Nc1ncnc2c1ncn2CCOCP(=O)(O)O` [Adefovir], the “anti-HBV activity in vitro” value is given as “effective anti-HBV activity in vitro”.
